Test results taken from ChEMBL document CHEMBL5126640, “Sanggenon C Suppresses Tumorigenesis of Gastric Cancer by Blocking ERK-Drp1-Mediated Mitochondrial Fission” (J Nat Prod, 2022).
The source made the active and inactive calls. The calls are words filed in the database; no cut-off is given here.

What was measured:
AGS [1] = test: Induction of apoptosis in human AGS cells assessed as upregulation of Bax level at 0 to 10 uM by Western blot analysis; assay type: functional, cell-based; details: dose 0-10 µM
AGS [2] = test: Induction of apoptosis in human AGS cells transfected with pcDNA3.1-Drp1 plasmid to overexpress DRP1 assessed as late apoptotic cells and measured after 24 hrs by AnnexinV-FITC/PI staining based flow cytometry method (reference value: 2.1 %); assay type: functional
AGS [3] = test: Induction of cell cycle arrest in human AGS cells assessed as decrease in CDK4 level at 0 to 10 uM by Western blot analysis; assay type: functional, cell-based; details: dose 0-10 µM
HGC-27 [4] = test: Induction of apoptosis in human HGC-27 cells assessed as necrotic cells at 6 uM measured after 24 hrs by AnnexinV-FITC/PI staining based flowcytometry method (reference value: 0.2%); assay type: functional
AGS [5] = test: Inhibition of mitochondrial fission in human AGS cells assessed as reduction in punctiform mitochondria at 0 to 6 uM measured after 24 hrs by mitotracker based confocal microscopy; assay type: functional; details: dose 0-6 µM
AGS [6] = test: Induction of apoptosis in human AGS cells assessed as increase in cleaved caspase-9 level at 0 to 10 uM by Western blot analysis; assay type: functional, cell-based; details: dose 0-10 µM
HGC-27 [7] = test: Induction of apoptosis in human HGC-27 cells assessed as early apoptotic cells at 8 uM measured after 24 hrs by AnnexinV-FITC/PI staining based flowcytometry method (reference value: 3.3%); assay type: functional
AGS [8] = test: Induction of apoptosis in human AGS cells assessed as early apoptotic cells at 8 uM measured after 24 hrs by AnnexinV-FITC/PI staining based flowcytometry method (reference value: 1.2%); assay type: functional
HGC-27 [9] = test: Induction of apoptosis in human HGC-27 cells assessed as necrotic cells at 10 uM measured after 24 hrs by AnnexinV-FITC/PI staining based flowcytometry method (reference value: 0.2%); assay type: functional
AGS [10] = test: Inhibition of mitochondrial fission in human AGS cells assessed as reduction in mitochondrial elongated fragments at 0 to 6 uM measured after 24 hrs by mitotracker based confocal microscopy; assay type: functional, cell-based; details: dose 0-6 µM
AGS [11] = test: Induction of mitochondrial dysfunction in human AGS cells assessed as decrease in mitochondrial membrane potential measured after 24 hrs by JC-1 staining based flow cytometry; assay type: functional, cell-based; details: DDE = dose-dependent effect
AGS [12] = test: Antitumor activity against human AGS cells xenografted in nude mouse assessed as downregulation of p-DRP1 levels at 10 to 20 mg/kg, ip administered every other day and monitored every 3 days; assay type: functional, organism-based; details: dose 10-20 mg/kg, time 3.0 day
HGC-27 [13] = test: Induction of apoptosis in human HGC-27 cells assessed as necrotic cells measured after 24 hrs by AnnexinV-FITC/PI staining based flow cytometry method (reference value: 0.1 %); assay type: functional
HGC-27 [14] = test: Induction of cell cycle arrest in human HGC-27 cells assessed as accumulation of cells at G0/G1 phase at 8 uM incubated for 24 hrs propidium iodide-A staining-based flow cytometric analysis (reference value: 45.21%); assay type: functional
HGC-27 [15] = test: Induction of apoptosis in human HGC-27 cells assessed as late apoptotic cells at 6 uM measured after 24 hrs by AnnexinV-FITC/PI staining based flowcytometry method (reference value: 5.4%); assay type: functional

## CC(C)=CCC12Oc3cc(O)ccc3C1(O)Oc1cc(O)c([C@H]3C=C(C)C[C@H](c4ccc(O)cc4O)[C@H]3C(=O)c3ccc(O)cc3O)c(O)c1C2=O (stereo not given in full)
AGS [1]
  Activity: Active
AGS [2]
  Activity: 6.8%
AGS [3]
  Activity: Active
HGC-27 [4]
  Activity: 1.5%
AGS [5]
  inhibition: Active
AGS [6]
  Activity: Active
HGC-27 [7]
  Activity: 4%
AGS [8]
  Activity: 2.1%
HGC-27 [9]
  Activity: 1.3%
AGS [10]
  inhibition: Active
AGS [11]
  Activity: Dde
AGS [12]
  Activity: Active
HGC-27 [13]
  Activity: 0.4%
HGC-27 [14]
  Activity: 62.4%
HGC-27 [15]
  Activity: 10%
